# Assay results from patent publication US10010612B2 (Indivior UK Limited, priority 2007, dated 2018).
# How the values were obtained:
# [1] = Risperidone release from ATRIGEL implants in rats (implant retrieval; 24-hour burst, 14-day and 28-day studies); type: in vivo, Sprague-Dawley rats; settings: 28 days
# Experimental: The retrieved implants and tissue were placed in a −86° C. freezer for at least 1 hour. The frozen samples were lyophilized for at least 4 hours. The dry samples were minced with scissors, which were cleaned after each sample to minimize cross-contamination. The samples were minced until powder-like. Approximately 5 mL of 70:30 dimethylsulfoxide/methanol with 1% polyethyleneimine extraction solvent was added to each sample. The samples were mixed overnight at about 200 rpm at 37° C. on the orbital shaker. The samples were sonicated for 10 minutes. 1.5 mL of the extract was loaded into a 3 mL lure lock syringe and filtered through a 0.2 μm pore size filter into a clean test tube. 1 mL of the filtrate was placed into a clean test tube and 4 mL of 50:50 acetonitrile/H2O was added. The test tube was vortexed for 30 seconds. About 2 mL of the solution was loaded into a 3 mL lure lock syringe and filtered into an High Performance Liquid Chromatography vial.
# [2] = Calculated risperidone release and plasma levels in dogs from in vitro release (in vitro to in vivo correlation); settings: suggested by calculated release and apomorphine data
# [3] = limit of solubility
# [4] = powder in polypropylene syringes, 5.8 to 31 KGy
# Experimental: The eight formulations prepared for testing were sterilized in glass vials and gamma resistant polypropylene copolymer syringes using various dose levels of irradiation.
# The dose level was 30 to 33 KGy for each of the samples.
# Syringes and glass vials obtained from the gamma radiation testing were analyzed with the control formulations.
# These were loaded into gamma-irradiation polypropylene syringes and capped.
compound,measurement,setting,value
"Cc1nc2n(c(=O)c1CCN1CCC(c3noc4cc(F)ccc34)CC1)CCCC2 [Risperidone, 4-[2-[4-(6-fluorobenzo[d]isoxazol-3-yl)-1-piperidyl]ethyl]-3-methyl-2,6-diazabicyclo[4.4.0]deca-1,3-dien-5-one]",stability of risperidone in ATRIGEL implants,[1],stable in ATRIGEL® implants for 28 days
same,minimum daily dose of risperidone needed in dogs for a biological response,[2],about 0.6 mg
same,solubility in N-methyl-2-pyrrolidone,[3],up to 5 % by weight
same,color after gamma irradiation,[4],turned beige at the lowest level of irradiation
